Assay [1] has as its target T1, Stimulator of interferon genes protein (Homo sapiens, UniProt Q86WV6). As to the kind of experiment: Activation of wild-type human STING expressed in human THP1-Dual cells co-expressing IRF3-activated ISRE assessed as IRF3 reporter activation measured after 7 hrs by luciferase reporter gene assay. The class given is cell-based.
Assay [2] can be described thus: Induction of INF-alpha production in healthy human PBMC incubated for 16 hrs. The class given is functional, tissue-based.
A short description of assay [3]: Induction of INF-gamma production in healthy human PBMC incubated for 16 hrs. The class given is functional, tissue-based.
Assay [4] can be described thus: Induction of TNF-alpha production in healthy human PBMC incubated for 16 hrs. The class given is functional, tissue-based.
Assay [5] deals with T1, Stimulator of interferon genes protein. As to the kind of experiment: Activation of wild-type human STING expressed in digitonin treated human THP1-Dual cells co-expressing IRF3-activated ISRE assessed as IRF3 reporter activation measured after 30 mins by luciferase reporter gene assay. The class given is cell-based. On the technique in general: A reporter such as luciferase makes a cellular process visible.

For assay [6] the target is unchanged. As to the kind of experiment: Activation of wild-type human STING expressed in HEK293T cells co-expressing IRF3-activated ISRE assessed as IRF3 reporter activation measured after 7 hrs by luciferase reporter gene assay. The class given is cell-based.
The target is the same in assay [7]. The assay is described as follows: Potency index, ratio of test compound EC50 to prodrug EC50 for activation of wild-type human STING expressed in digitonin treated THP1-Dual cells co-expressing IRF3-activated ISRE assessed as IRF3 reporter activation measured after 7 hrs by luciferase reporter gene assay. The class given is cell-based.
Assay [8] in a line: Potency index, ratio of test compound EC50 to prodrug EC50 for induction of INF-alpha production in healthy human PBMC incubated for 16 hrs. The class given is functional.
Assay [9] has as its target T1, Stimulator of interferon genes protein. The assay is described as follows: Potency index, ratio of test compound EC50 to prodrug EC50 for activation of wild-type human STING expressed in HEK293T cells co-expressing IRF3-activated ISRE assessed as IRF3 reporter activation measured after 30 mins by luciferase reporter gene assay. The class given is cell-based.
The target is the same in assay [10]. The assay is described as follows: Potency index, ratio of test compound EC50 to prodrug EC50 for activation of wild-type human STING expressed in human THP1-Dual cells co-expressing IRF3-activated ISRE assessed as IRF3 reporter activation measured after 30 mins by luciferase reporter gene assay. The class given is cell-based.
Assay [11] has the same target. As to the kind of experiment: Activation of wild-type human STING expressed in HEK293T cells co-expressing IRF3-activated ISRE assessed as IRF3 reporter activation measured after 30 mins by luciferase reporter gene assay. The class given is cell-based.
The nature of assay [12]: Potency index, ratio of test compound EC50 to prodrug EC50 for induction of INF-gamma production in healthy human PBMC incubated for 16 hrs. The class given is functional.
The nature of assay [13]: Potency index, ratio of test compound EC50 to prodrug EC50 for induction of TNF-alpha production in healthy human PBMC incubated for 16 hrs. The class given is functional.
In assay [14] the target is T1, Stimulator of interferon genes protein. As to the kind of experiment: Potency index, ratio of test compound EC50 to prodrug EC50 for activation of wild-type human STING expressed in HEK293T cells co-expressing IRF3-activated ISRE assessed as IRF3 reporter activation measured after 7 hrs by luciferase reporter gene assay. The class given is cell-based.
A short description of assay [15]: Activation of human STING Q mutant expressed in digitonin treated HEK293T cells co-expressing IRF3-activated ISRE assessed as IRF3 reporter activation by luciferase reporter gene assay. The class given is cell-based. As to conditions: HEK-293T.
A short description of a further assay: cells. As to conditions: Homo sapiens, HEK-293T.

Molecules are shown by their SMILES.

One may read the EC50 as the concentration at which the effect is half-maximal.

T1 sequence (Q86WV6 whole entry): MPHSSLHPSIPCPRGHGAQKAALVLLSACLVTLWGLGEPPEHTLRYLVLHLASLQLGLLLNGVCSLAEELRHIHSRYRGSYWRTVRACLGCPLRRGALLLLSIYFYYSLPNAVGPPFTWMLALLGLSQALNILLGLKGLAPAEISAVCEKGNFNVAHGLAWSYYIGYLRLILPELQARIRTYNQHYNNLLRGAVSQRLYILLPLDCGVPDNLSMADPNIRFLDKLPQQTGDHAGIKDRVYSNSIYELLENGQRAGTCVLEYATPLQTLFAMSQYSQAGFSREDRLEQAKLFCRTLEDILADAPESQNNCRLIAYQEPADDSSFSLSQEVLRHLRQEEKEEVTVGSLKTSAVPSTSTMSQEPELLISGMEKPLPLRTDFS
Description for cells: Activation of human STING REF mutant expressed in digitonin treated HEK293T cells co-expressing IRF3-activated ISRE assessed as IRF3 reporter activation by luciferase reporter gene assay

`Nc1ncnc2c1ncn2[C@@H]1O[C@@H]2CO[P@@](=O)(OCOC(=O)c3ccccc3)O[C@H]3[C@@H](F)[C@H](n4cnc5c(N)ncnc54)O[C@@H]3CO[P@](=O)(OCOC(=O)c3ccccc3)O[C@H]2[C@H]1F`: the EC50 was 40 nM in assay [1]; 700 nM in assay [2]; 30 nM in assay [3]; 230 nM in assay [4]; 330 nM in [5]; 40 nM in [6].

Regarding `CC(C)(C)C(=O)OCS[P@@]1(=O)OC[C@H]2O[C@@H](n3cnc4c(N)ncnc43)[C@H](F)[C@@H]2O[P@@](=O)(SCOC(=O)C(C)(C)C)OC[C@H]2O[C@@H](n3cnc4c(N)ncnc43)[C@H](F)[C@@H]2O1`, the EC50 in assay [1] was 50 nM; in assay [2] it was 720 nM; in assay [3], 1190 nM; in [4] it was 180 nM; in assay [11], 40 nM; in assay [5], 80 nM. Besides, in assay [6], the EC50 came to 70 nM. For the same compound, the Ratio EC50 in [7] was 159; in [8], 41; in assay [9], 62; in assay [10], 152; in assay [12], 8; in assay [13], 146. Also, the Ratio EC50 in [14] was found to be 23.

With `CC(C)(C)C(=O)OCO[P@]1(=O)OC[C@H]2O[C@@H](n3cnc4c(N)ncnc43)[C@H](F)[C@@H]2OP(=O)(O)OC[C@H]2O[C@@H](n3cnc4c(N)ncnc43)[C@H](F)[C@@H]2O1`, the EC50 in assay [1] amounted to 180 nM; in assay [11], 460 nM; in [5], 500 nM; in [6] it was 130 nM. For the same compound, the Ratio EC50 in assay [7] was found to be 6; in assay [9], 212; in assay [10], 38; in [14], 61.

As for `CCC(CC)C(=O)OCO[P@]1(=O)OC[C@H]2O[C@@H](n3cnc4c(N)ncnc43)[C@H](F)[C@@H]2OP(=O)(O)OC[C@H]2O[C@@H](n3cnc4c(N)ncnc43)[C@H](F)[C@@H]2O1`, the EC50 in [1] stood at 150 nM; in assay [11], 1360 nM; in assay [5] it was 970 nM; in assay [6] it was 450 nM. Also, the Ratio EC50 in assay [7] is 7; in assay [9], 71; in assay [10] it was 20; in assay [14], 18.

Turning to `CC(C)OC(=O)OCO[P@]1(=O)OC[C@H]2O[C@@H](n3cnc4c(N)ncnc43)[C@H](F)[C@@H]2OP(=O)(O)OC[C@H]2O[C@@H](n3cnc4c(N)ncnc43)[C@H](F)[C@@H]2O1`, the EC50 in assay [1] was 200 nM; in [11] it was 1930 nM; in assay [5], 1710 nM; in assay [6] it was 320 nM. The Ratio EC50 in [7] turned out to be 5; in assay [9] it was 50; in [10], 11; in assay [14] it was 25.

Consider `CC(C)OC(=O)OCO[P@]1(=O)OC[C@H]2O[C@@H](n3cnc4c(N)ncnc43)[C@H](F)[C@@H]2O[P@](=O)(OCOC(=O)OC(C)C)OC[C@H]2O[C@@H](n3cnc4c(N)ncnc43)[C@H](F)[C@@H]2O1`, for which the EC50 in [1] worked out at 30 nM; in assay [2], 360 nM; in assay [3], 160 nM; in assay [4] it was 350 nM; in assay [11], 310 nM; in [5], 380 nM. The EC50 in assay [6] stood at 30 nM. Moreover, the “Ratio EC50” value in [8] worked out at 414; in [12], 51; in assay [13] it was 90.

Turning to `Nc1nc2c(ncn2[C@@H]2O[C@@H]3COP(=O)(O)O[C@@H]4[C@H](O)[C@@H](COP(=O)(O)O[C@@H]2[C@@H]3O)O[C@H]4n2cnc3c(N)ncnc32)c(=O)[nH]1`, the EC50 turned out to be 2630 nM in assay [1]; 17300 nM in [2]; 11500 nM in [3]; 170 nM in [15]; 72600 nM in assay [4]; 85100 nM in assay [11]. For the same compound, the EC50 turned out to be 28500 nM in [5] and 11700 nM in assay [6].

For `CC(C)(C)C(=O)OCS[P@@]1(=O)OC[C@H]2O[C@@H](n3cnc4c(N)ncnc43)[C@H](F)[C@@H]2O[P@](=O)(SCOC(=O)C(C)(C)C)OC[C@H]2O[C@@H](n3cnc4c(N)ncnc43)[C@H](F)[C@@H]2O1`, the EC50 in [1] turned out to be 20 nM; in [2], 70 nM; in assay [3], 50 nM; in [4], 100 nM; in assay [11], 40 nM; in assay [5], 30 nM. In [6], the EC50 was 40 nM. For the same compound, the Ratio EC50 worked out at 18 in assay [7]; 260 in assay [8]; 14 in assay [9]; 94 in assay [10]; 222 in assay [12]; 82 in assay [13]. Moreover, the Ratio EC50 in assay [14] was 3.

As to `CCC(CC)C(=O)OCO[P@@]1(=O)OC[C@H]2O[C@@H](n3cnc4c(N)ncnc43)[C@H](F)[C@@H]2O[P@](=O)(OCOC(=O)C(CC)CC)OC[C@H]2O[C@@H](n3cnc4c(N)ncnc43)[C@H](F)[C@@H]2O1`, the EC50 in [1] amounted to 50 nM; in assay [2], 260 nM; in [3], 30 nM; in assay [4], 70 nM; in assay [11], 230 nM; in assay [5], 350 nM. The EC50 in [6] stood at 30 nM. In addition, the “Ratio EC50” value is 195 in [8], 285 in assay [12] and 432 in assay [13].

With `Nc1nc2c(ncn2[C@@H]2O[C@@H]3COP(=O)(O)O[C@H]4[C@@H](O)[C@H](n5cnc6c(N)ncnc65)O[C@@H]4COP(=O)(O)O[C@H]3[C@H]2O)c(=O)[nH]1`, the EC50 is 26700 nM in assay [2], 15100 nM in assay [3], over 300000 nM in assay [4] and 4260 nM in “cells”.

For the compound `CC(C)OC(=O)OCO[P@@]1(=O)OC[C@H]2O[C@@H](n3cnc4c(N)ncnc43)[C@H](F)[C@@H]2O[P@](=O)(OCOC(=O)OC(C)C)OC[C@H]2O[C@@H](n3cnc4c(N)ncnc43)[C@H](F)[C@@H]2O1`, the EC50 in assay [1] came out at 110 nM; in [2], 1290 nM; in [3] it was 1470 nM; in assay [4] it was 710 nM; in assay [11], 940 nM; in assay [5], 970 nM. Further, the EC50 in assay [6] was 170 nM. Also, the figures for the “Ratio EC50” value in assay [8], in [12] and in [13] were 40, 6 and 45, respectively.

As for `Nc1ncnc2c1ncn2[C@@H]1O[C@@H]2CO[P@@](=O)(OCOC(=O)c3ccccc3)O[C@H]3[C@@H](F)[C@H](n4cnc5c(N)ncnc54)O[C@@H]3COP(=O)(O)O[C@H]2[C@H]1F`, the EC50 in assay [1] was 270 nM; in assay [11] it was 3090 nM; in assay [5], 1740 nM; in assay [6], 400 nM. Besides, the Ratio EC50 stood at 4 in assay [7], 31 in assay [9], 11 in assay [10] and 20 in assay [14].

As to `CC(C)(C)C(=O)OCS[P@]1(=O)OC[C@H]2O[C@@H](n3cnc4c(N)ncnc43)[C@H](F)[C@@H]2O[P@](=O)(SCOC(=O)C(C)(C)C)OC[C@H]2O[C@@H](n3cnc4c(N)ncnc43)[C@H](F)[C@@H]2O1`, the EC50 in assay [1] was 20 nM; in assay [2] it was 130 nM; in assay [3], 90 nM; in assay [4] it was 100 nM; in assay [11], 180 nM; in assay [5] it was 60 nM. In [6], the EC50 was found to be 120 nM. For the same compound, the Ratio EC50 in assay [7] stood at 15; in [8], 301; in assay [9], 38; in [10] it was 55; in assay [12], 68; in assay [13], 93. Moreover, in assay [14], the Ratio EC50 came out at 10.

Take `CCC(CC)C(=O)OCO[P@]1(=O)OC[C@H]2O[C@@H](n3cnc4c(N)ncnc43)[C@H](F)[C@@H]2O[P@](=O)(OCOC(=O)C(CC)CC)OC[C@H]2O[C@@H](n3cnc4c(N)ncnc43)[C@H](F)[C@@H]2O1`: the EC50 in [1] is 20 nM; in assay [2], 50 nM; in assay [3] it was 4 nM; in assay [4], 20 nM; in [11] it was 70 nM; in assay [5], 110 nM. Moreover, the EC50 in assay [6] stood at 10 nM. In addition, the “Ratio EC50” value in assay [8] turned out to be 985; in assay [12], 2135; in assay [13], 1485.
